Patent US20240158370A1, “CK1 alpha AND DUAL CK1 alpha / GSPT1 DEGRADING COMPOUNDS” (Innovo Therapeutics, Inc., priority 2022, published 2024)

Experiments:
CK1α = target: T1, CK1α (Homo sapiens, UniProt P48729+Q96SW2); experiment: HiBiT degradation assay, CK1α, Procedure A; assay type: cell-based; conditions: six hours
T1 construct: CSNK1A1-HiBit KI HEK293(LgBit) Cells; host or cells: HEK293(LgBit) knock-in cells
In short: (§1)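 DC50 and Ymin (% remaining) were derived by four-parameter fitting of luminescence data. The data come from a six-hour, 37° C compound exposure of cells in DMEM/10% FBS over a ten-point range, 10 μM to 0.005 μM, followed by Nano-Glo HiBiT lytic detection.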

GSPT1 = GSPT1 (Homo sapiens, UniProt P15170+Q96SW2); experiment: HiBiT degradation assay, GSPT1, Procedure A; assay type: cell-based; design: HiBit-GSPT1 KI HEK293(LgBit) Cells; host or cells: HEK293(LgBit) knock-in cells; conditions: six hours
GSPT1, sequence (P15170 whole entry): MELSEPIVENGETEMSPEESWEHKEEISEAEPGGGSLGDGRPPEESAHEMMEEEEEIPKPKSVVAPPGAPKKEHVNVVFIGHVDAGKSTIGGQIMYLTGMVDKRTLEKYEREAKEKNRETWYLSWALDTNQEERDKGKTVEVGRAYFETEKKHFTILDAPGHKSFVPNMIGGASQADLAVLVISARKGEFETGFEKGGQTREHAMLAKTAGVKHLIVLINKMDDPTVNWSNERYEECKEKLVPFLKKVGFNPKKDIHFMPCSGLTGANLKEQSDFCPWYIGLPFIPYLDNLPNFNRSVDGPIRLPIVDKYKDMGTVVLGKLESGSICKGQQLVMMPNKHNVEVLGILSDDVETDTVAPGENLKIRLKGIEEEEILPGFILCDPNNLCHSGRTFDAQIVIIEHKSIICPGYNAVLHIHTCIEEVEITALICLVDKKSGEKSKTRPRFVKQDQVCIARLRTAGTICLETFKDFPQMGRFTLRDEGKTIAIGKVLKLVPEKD
GSPT1, sequence (Q96SW2 whole entry): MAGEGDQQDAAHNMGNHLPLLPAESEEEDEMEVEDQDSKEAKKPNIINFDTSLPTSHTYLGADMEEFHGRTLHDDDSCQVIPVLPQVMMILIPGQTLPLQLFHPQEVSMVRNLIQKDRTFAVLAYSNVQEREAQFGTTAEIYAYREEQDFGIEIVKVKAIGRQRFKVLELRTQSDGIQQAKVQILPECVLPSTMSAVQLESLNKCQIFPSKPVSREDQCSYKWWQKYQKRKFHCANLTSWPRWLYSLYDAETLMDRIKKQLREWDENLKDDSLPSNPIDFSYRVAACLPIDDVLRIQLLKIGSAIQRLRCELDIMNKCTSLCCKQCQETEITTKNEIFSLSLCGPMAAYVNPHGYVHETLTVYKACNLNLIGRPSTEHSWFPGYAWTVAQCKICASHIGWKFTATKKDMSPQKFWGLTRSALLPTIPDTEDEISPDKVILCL
GSPT1, sequence (Q16531 whole entry partner): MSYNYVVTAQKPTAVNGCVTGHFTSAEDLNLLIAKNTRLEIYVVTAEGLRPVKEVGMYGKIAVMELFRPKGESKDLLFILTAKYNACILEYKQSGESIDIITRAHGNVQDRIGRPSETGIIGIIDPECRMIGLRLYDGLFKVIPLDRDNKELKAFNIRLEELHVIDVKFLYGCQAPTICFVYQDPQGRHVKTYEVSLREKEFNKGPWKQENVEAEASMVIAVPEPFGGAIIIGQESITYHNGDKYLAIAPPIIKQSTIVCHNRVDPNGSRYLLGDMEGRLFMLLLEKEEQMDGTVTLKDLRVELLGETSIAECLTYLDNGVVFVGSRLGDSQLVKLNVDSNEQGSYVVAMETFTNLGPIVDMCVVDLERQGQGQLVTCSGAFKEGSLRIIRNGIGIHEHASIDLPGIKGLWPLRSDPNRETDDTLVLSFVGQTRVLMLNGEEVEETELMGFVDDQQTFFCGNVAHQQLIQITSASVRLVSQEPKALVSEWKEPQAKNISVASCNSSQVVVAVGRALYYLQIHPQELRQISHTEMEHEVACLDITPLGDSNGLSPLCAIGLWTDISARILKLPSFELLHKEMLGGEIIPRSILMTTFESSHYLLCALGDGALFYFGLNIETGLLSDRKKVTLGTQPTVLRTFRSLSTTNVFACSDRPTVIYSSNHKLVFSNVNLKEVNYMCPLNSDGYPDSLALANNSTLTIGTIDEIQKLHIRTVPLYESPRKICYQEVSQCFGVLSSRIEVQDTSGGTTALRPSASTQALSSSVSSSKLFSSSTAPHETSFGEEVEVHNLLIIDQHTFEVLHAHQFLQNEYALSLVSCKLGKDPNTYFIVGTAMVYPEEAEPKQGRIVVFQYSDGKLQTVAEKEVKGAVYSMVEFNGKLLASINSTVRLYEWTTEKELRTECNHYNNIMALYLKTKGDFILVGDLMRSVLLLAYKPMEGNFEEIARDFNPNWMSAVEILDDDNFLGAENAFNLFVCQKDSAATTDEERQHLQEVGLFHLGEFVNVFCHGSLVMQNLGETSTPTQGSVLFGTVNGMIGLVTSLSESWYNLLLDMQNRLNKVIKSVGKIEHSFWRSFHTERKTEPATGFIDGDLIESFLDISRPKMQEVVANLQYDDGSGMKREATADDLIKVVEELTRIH
In short: as §1

T1 sequence (P48729 whole entry): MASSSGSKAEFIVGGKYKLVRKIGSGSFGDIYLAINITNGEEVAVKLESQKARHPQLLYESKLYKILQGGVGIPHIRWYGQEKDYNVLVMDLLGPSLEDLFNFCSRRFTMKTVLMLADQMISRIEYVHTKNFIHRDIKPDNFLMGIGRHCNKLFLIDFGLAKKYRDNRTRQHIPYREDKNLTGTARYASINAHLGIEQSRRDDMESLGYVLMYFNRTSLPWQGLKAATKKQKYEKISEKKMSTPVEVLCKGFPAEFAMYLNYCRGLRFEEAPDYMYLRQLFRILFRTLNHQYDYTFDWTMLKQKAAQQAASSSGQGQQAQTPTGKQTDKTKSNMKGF
T1 sequence (Q96SW2 whole entry): as the sequence (Q96SW2 whole entry) above
T1 sequence (Q16531 whole entry partner): as the sequence (Q16531 whole entry partner) above

| CK1α Ymin (CK1α) | DC50 (CK1α) | DC50 (GSPT1) | GSPT1 Ymin (GSPT1) | SMILES |
| --- | --- | --- | --- | --- |
| E (E = >25-75% remaining) | ≥ 25 nM | ≥ 25 nM | F (F = >75-100% remaining) | COc1ccncc1-c1c(-c2ccc3c(c2)CN(C2CCC(=O)NC2=O)C3=O)ncn1C (centres unmarked) [Example 524] |
| C (C = 0-10% remaining) | < 25 nM | < 25 nM | C (C = 0-10% remaining) | Cn1cnc(-c2ccc3c(c2)CN(C2CCC(=O)NC2=O)C3=O)c1-c1ccc2cc[nH]c2c1 (centres unmarked) [Example 525] |
| E (E = >25-75% remaining) | < 25 nM | < 25 nM | F (F = >75-100% remaining) | Cn1cnc(-c2ccc3c(c2)CN(C2CCC(=O)NC2=O)C3=O)c1-c1cccc2cc[nH]c12 (centres unmarked) [Example 526] |
| D (D = >10- 25% remaining) | < 25 nM | < 25 nM | E (E = >25-75% remaining) | Cn1cnc(-c2ccc3c(c2)CN(C2CCC(=O)NC2=O)C3=O)c1-c1cc2ccccc2[nH]1 (centres unmarked) [Example 527] |
| D (D = >10- 25% remaining) | ≥ 25 nM | ≥ 25 nM | E (E = >25-75% remaining) | Cn1cnc(-c2ccc3c(c2)CN(C2CCC(=O)NC2=O)C3=O)c1-c1ccc2nccn2c1 (centres unmarked) [Example 528] |
| D (D = >10- 25% remaining) | < 25 nM | < 25 nM | F (F = >75-100% remaining) | Cn1cnc(-c2ccc3c(c2)CN(C2CCC(=O)NC2=O)C3=O)c1-c1ccc2ccn(C)c2c1 (centres unmarked) [Example 529] |
| E (E = >25-75% remaining) | < 25 nM | < 25 nM | F (F = >75-100% remaining) | Cn1cnc(-c2ccc3c(c2)CN(C2CCC(=O)NC2=O)C3=O)c1-c1ccn(-c2ccc(F)cc2)n1 (centres unmarked) [Example 530] |
| C (C = 0-10% remaining) | ≥ 25 nM | ≥ 25 nM | E (E = >25-75% remaining) | Cn1cnc(-c2ccc3c(c2)CN(C2CCC(=O)NC2=O)C3=O)c1-c1cn[nH]c1 (centres unmarked) [Example 531] |
| D (D = >10- 25% remaining) | < 25 nM | ≥ 25 nM | F (F = >75-100% remaining) | Cn1cc(-c2ccc3c(c2)CN(C2CCC(=O)NC2=O)C3=O)nc1C1CCOCC1 (centres unmarked) [Example 532, 3-(5-(1-methyl-2-(tetrahydro-2H-pyran-4-yl)-1H-imidazol-4-yl)-1-oxoisoindolin-2-yl)piperidine-2,6-dione] |
| E (E = >25-75% remaining) | ≥ 25 nM | ≥ 25 nM | F (F = >75-100% remaining) | Cn1nc(-c2ccc3c(c2)CN(C2CCC(=O)NC2=O)C3=O)cc1-c1cncnc1 (centres unmarked) [Example 533] |
| D (D = >10- 25% remaining) | < 25 nM | ≥ 25 nM | F (F = >75-100% remaining) | Cn1cc(-c2ccc3c(c2)CN(C2CCC(=O)NC2=O)C3=O)nc1C1CCC2(CC1)CC2 (centres unmarked) [Example 534, 3-(5-(1-Methyl-2-(spiro[2.5]octan-6-yl)-1H-imidazol-4-yl)-1-oxoisoindolin-2-yl)piperidine-2,6-dione] |
| D (D = >10- 25% remaining) | ≥ 25 nM | ≥ 25 nM | F (F = >75-100% remaining) | Cn1c(C2CCOCC2)nc(-c2ccc3c(c2)CN(C2CCC(=O)NC2=O)C3=O)c1-c1cncnc1 (centres unmarked) [Example 535, 3-(5-(1-methyl-5-(pyrimidin-5-yl)-2-(tetrahydro-2H-pyran-4-yl)-1H-imidazol-4-yl)-1-oxoisoindolin-2-yl)piperidine-2,6-dione] |
| F (F = >75-100% remaining) | ≥ 25 nM | ≥ 25 nM | F (F = >75-100% remaining) | O=C1CCC(N2Cc3cc(-c4cn(C(F)F)nc4-c4cncnc4)ccc3C2=O)C(=O)N1 (centres unmarked) [Example 536, 3-(5-(1-(difluoromethyl)-3-(pyrimidin-5-yl)-1H-pyrazol-4-yl)-1-oxoisoindolin-2-yl)piperidine-2,6-dione] |
| D (D = >10- 25% remaining) | < 25 nM | ≥ 25 nM | F (F = >75-100% remaining) | Cn1c(-c2ccc3c(c2)CN(C2CCC(=O)NC2=O)C3=O)cnc1N1CCCCC1 (centres unmarked) [Example 537, 3-(5-(1-methyl-2-(piperidin-1-yl)-1H-imidazol-5-yl)-1-oxoisoindolin-2-yl)piperidine-2,6-dione] |
| D (D = >10- 25% remaining) | < 25 nM | ≥ 25 nM |  | Cn1nc(-c2ccc3c(c2)CN(C2CCC(=O)NC2=O)C3=O)cc1C1CCOCC1 (centres unmarked) [Example 538, 3-(5-(1-methyl-5-(tetrahydro-2H-pyran-4-yl)-1H-pyrazol-3-yl)-1-oxoisoindolin-2-yl)piperidine-2,6-dione] |
| E (E = >25-75% remaining) | < 25 nM | ≥ 25 nM | F (F = >75-100% remaining) | Cn1cc(-c2ccc3c(c2)CN(C2CCC(=O)NC2=O)C3=O)nc1C1CCC(C)(C)CC1 (centres unmarked) [Example 539, 3-(5-(2-(4,4-dimethylcyclohexyl)-1-methyl-1H-imidazol-4-yl)-1-oxoisoindolin-2-yl)piperidine-2,6-dione] |
| C (C = 0-10% remaining) | < 25 nM | ≥ 25 nM | F (F = >75-100% remaining) | Cn1c(C(F)F)nc(-c2ccc3c(c2)CN(C2CCC(=O)NC2=O)C3=O)c1-c1cncnc1 (centres unmarked) [Example 540, 3-(5-(2-(difluoromethyl)-1-methyl-5-(pyrimidin-5-yl)-1H-imidazol-4-yl)-1-oxoisoindolin-2-yl)piperidine-2,6-dione] |
| D (D = >10- 25% remaining) | < 25 nM | < 25 nM | F (F = >75-100% remaining) | Cn1ncc(-c2ccc3c(c2)CN(C2CCC(=O)NC2=O)C3=O)c1-c1ccc(C(C)(F)F)cc1 (centres unmarked) [Example 541, 3-(5-(5-(4-(1,1-difluoroethyl)phenyl)-1-methyl-1H-pyrazol-4-yl)-1-oxoisoindolin-2-yl)piperidine-2,6-dione] |
| C (C = 0-10% remaining) | < 25 nM | < 25 nM | F (F = >75-100% remaining) | Cn1ncc(-c2ccc3c(c2)CN(C2CCC(=O)NC2=O)C3=O)c1-c1ccc2c(c1)OC(F)(F)O2 (centres unmarked) [Example 542, 3-(5-(5-(2,2-difluorobenzo[d][1,3]dioxol-5-yl)-1-methyl-1H-pyrazol-4-yl)-1-oxoisoindolin-2-yl)piperidine-2,6-dione] |
| C (C = 0-10% remaining) | < 25 nM | ≥ 25 nM | F (F = >75-100% remaining) | CC(C)c1nc(-c2ccc3c(c2)CN(C2CCC(=O)NC2=O)C3=O)c(-c2cncnc2)n1C (centres unmarked) [Example 543, 3-[5-(2-isopropyl-1-methyl-5-pyrimidin-5-yl-imidazol-4-yl)-1-oxo-isoindolin-2-yl]piperidine-2,6-dione] |
| E (E = >25-75% remaining) | ≥ 25 nM | ≥ 25 nM | F (F = >75-100% remaining) | Cc1nc(-c2ccc3c(c2)CN(C2CCC(=O)NC2=O)C3=O)c(-c2cncnc2)n1C (centres unmarked) [Example 544, 3-(5-(1,2-dimethyl-5-(pyrimidin-5-yl)-1H-imidazol-4-yl)-1-oxoisoindolin-2-yl)piperidine-2,6-dione] |
